In patent US20260315653A1, “ANTICOAGULANT COMPOSITIONS COMPRISING ANTI-PLATELET AND ANTI-INFLAMMATORY DRUGS AND METHODS AND DEVICES FOR THEIR USE” (Elixir Medical Corporation, priority 2023, published 2026):

Experiments:
[1] = pH of 1 mg/ml EDTA or analogue in water or phosphate buffer; type: physicochemical
From the text: Based on the pH of EDTA or analogues in water and in 0.1M phosphate buffered saline as show in Table 2, EDTA disodium salt or dipotassium salt has a pH close to neutral pH in human body (6.42-6.92), whereas EDTA tetrasodium or trisodium has a very basic pH (>8.0) in human body. EDTA disodium or dipotassium is preferred in the examples.

[2] = as above; type: physicochemical; details: 1 mg/ml in 0.01 M pH 7.4 phosphate buffer; 21.8-22.3 ° C.; listed as EDTA tetra sodium
[3] = system: blood clotting (fresh pig blood); test: Activated clotting time (ACT) of EDTA or analogues in fresh pig blood (Example 12); details: for Increase in clotting time compared to control: control 154 sec
Protocol: The activated clotting time (ACT) evaluation of EDTA or analogues was performed in fresh pig blood and recorded employing the Hemochron® Response device.
The ACT measurements were made in fresh pig blood. 1.0 ml of fresh pig blood was added to a test tube containing an activator (Hemochron@Celite@ ACT tubes, Lot F8FTE026 from Accriva Diagnostics, Inc.). A target amount of drug solution was then added into the test tube. The test tube was gently swirled so that the blood and drug was well-mixed. 0.1 ml of 0.3M calcium chloride was then added. The tube was gently shaken before being inserted into the Hemochron Response detector. The ACT read out was recorded and reported. The ACT of the control blood in the absence of any drug as first determined to establish a baseline. Then ACT was determined in the presence of different concentrations of EDTA or analogues as a single component.

[4] = In-vitro elution of coated stents in 0.01M phosphate buffered saline at 37° C. (HPLC); type: physicochemical; details: 5 min
Protocol: (§1) In-Vitro Elution evaluation of the EDTA coated stent above prepared was performed in 0.01M phosphate buffered saline at 37° C. water shaking bath then tested on High Performance Liquid Chromatography (HPLC). EDTA was separated from interfering peaks by a Carbon18 reverse phase column and quantified with an external EDTA calibration standard solution prepared at similar concentrations. The percentage of EDTA eluted was calculated during each time point.
as §1, with “of Tetra acetoxymethyl ester” for “of the”, “stent” for “stent above prepared”, “(HPLC). Tetra acetoxymethyl ester” for “(HPLC).”, “external tetra acetoxymethyl ester” for “external”, “of tetra acetoxymethyl ester” for “of”
In-Vitro Elution evaluation of the EDTA complex coated stent was performed in 0.01M phosphate buffered saline at 37° C. water shaking bath then tested on High Performance Liquid Chromatography (HPLC). EDTA disodium was separated from interfering peaks by a Carbon18 reverse phase column and quantified with an external EDTA disodium calibration standard solution prepared at similar concentrations. […]

O=C(O)CN(CCN(CC(=O)O)CC(=O)O)CC(=O)O [EDTA•4Na•xH2O]
pH ([1]; 1 mg/ml in d-water, 21.8-22.0 ° C., listed as EDTA tetra sodium): 9.61
pH ([1]; in water and phosphate buffered saline, listed as EDTA tetrasodium): > 8.0
pH [2]: 8.27
Clotting time (ACT) ([3]; 100 ng/mg): 204 s
Increase in clotting time compared to control ([3]; 100 ng/mg): 50 s
Clotting time (ACT) ([3]; 200 ng/mg): 275 s
Increase in clotting time compared to control ([3]; 200 ng/mg): 121 s
Clotting time (ACT) ([3]; 250 ng/mg): 329 s
Increase in clotting time compared to control ([3]; 250 ng/mg): 175 s
Clotting time (ACT) ([3]; 300 ng/mg): >500 s
Increase in clotting time compared to control ([3]; 300 ng/mg): >346 s
blood coagulation compared to the blood control ([3]; EDTA 200 ng/mg, sodium salts 300 ng/mg, listed as EDTA tetra sodium salt): The same trend
Cumulative percent release of EDTA [4]: about 99.8%
